In EP4596574A1, “GLP-1/GCG/GIP TRIPLE-RECEPTOR AGONIST AND USE THEREOF” (Sunshine Lake Pharma Co., Ltd., priority 2022, dated 2024):
pEC50: −log10 of the molar value. Starred links: 1 amine or outer side, 2 acyl side, 3 side chain; linkers in the order of their positions; H or OH if unused. Non-standard residues stand in square brackets, D forms with d. Residues, ends and D or L forms follow the SMILES beside them. Groups on a side chain read outwards from the residue. *: point of attachment. C20 diacid = O=C(O)CCCCCCCCCCCCCCCCCCC(=O)*; C18 diacid = O=C(O)CCCCCCCCCCCCCCCCC(=O)*; αMePhe(2-F) = C[C@](N)(Cc1ccccc1F)C(=O)O; γGlu = O=C(O)[C@H](CCC(=O)[*:2])N[*:1]; AEEA = NCCOCCOCC(=O)O; Aib = CC(C)(N)C(=O)O

Key:
Format in all cases: cell-based
GLP-1R = molecular target: T1, GLP-1R (Homo sapiens, UniProt P43220); assay: In vitro cell activity, cAMP production in HEK293 cells expressing GLP-1R; details: HEK293-GLP-1R cells, cAMP; read-out: GLP-1R (EC50)
T1 construct: expressed in transfected cells; host or cells: HEK293 (HEK293-GLP-1R)
T1 sequence (P43220 24-463, species assumed): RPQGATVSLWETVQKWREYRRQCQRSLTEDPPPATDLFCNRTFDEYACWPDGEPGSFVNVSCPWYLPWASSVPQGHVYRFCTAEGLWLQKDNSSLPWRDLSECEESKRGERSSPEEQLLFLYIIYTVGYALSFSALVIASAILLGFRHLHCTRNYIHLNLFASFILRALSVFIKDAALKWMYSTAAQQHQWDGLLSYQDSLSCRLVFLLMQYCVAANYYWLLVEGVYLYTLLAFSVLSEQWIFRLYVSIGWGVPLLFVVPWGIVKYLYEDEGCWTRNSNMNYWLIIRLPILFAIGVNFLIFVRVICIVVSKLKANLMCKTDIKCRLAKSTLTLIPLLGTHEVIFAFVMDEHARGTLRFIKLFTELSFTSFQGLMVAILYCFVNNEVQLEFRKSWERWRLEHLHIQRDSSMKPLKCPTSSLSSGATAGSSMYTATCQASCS
Summary of the method: (§1)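 cAMP output read as 665/620 nm HTRF ratio after adding cAMP-d2 plus anti-cAMP cryptate and incubating 1 h at room temperature in the dark or overnight at 4 °C. Cells: HEK293 expressing human GLP-1R or GCGR, plated from a 4×10^5 cells/mL suspension. Four-parameter fit gives EC50.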

GCGR = molecular target: T2, GCGR (Homo sapiens, UniProt P47871); assay: In vitro cell activity, cAMP production in HEK293 cells expressing GCGR; details: HEK293-GCGR cells, cAMP; read-out: GCGR (EC50)
T2 construct: expressed in transfected cells; host or cells: HEK293 (HEK293-GCGR)
T2 sequence (P47871 26-477, species assumed): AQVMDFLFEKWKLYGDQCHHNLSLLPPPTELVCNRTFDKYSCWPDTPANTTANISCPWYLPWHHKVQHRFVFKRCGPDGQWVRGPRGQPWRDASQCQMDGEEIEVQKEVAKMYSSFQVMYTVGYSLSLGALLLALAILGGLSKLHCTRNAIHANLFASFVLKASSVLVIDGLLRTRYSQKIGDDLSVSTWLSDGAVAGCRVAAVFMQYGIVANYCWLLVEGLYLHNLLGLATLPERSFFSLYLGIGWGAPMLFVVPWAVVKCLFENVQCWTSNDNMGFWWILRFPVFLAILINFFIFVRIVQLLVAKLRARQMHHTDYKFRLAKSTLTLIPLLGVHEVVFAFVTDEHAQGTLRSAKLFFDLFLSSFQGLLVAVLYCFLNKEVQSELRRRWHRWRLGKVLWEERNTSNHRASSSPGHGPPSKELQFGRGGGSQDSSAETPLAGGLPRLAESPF
Summary of the method: as §1

GIPR = molecular target: T3, GIPR (Homo sapiens, UniProt P48546); assay: In vitro cell activity, cAMP production in HEK293 cells expressing GIPR; details: HEK293-GIPR cells, cAMP; read-out: GIPR (EC50)
T3 construct: expressed in transfected cells; host or cells: HEK293 (HEK293-GIPR)
T3 sequence (P48546 22-466): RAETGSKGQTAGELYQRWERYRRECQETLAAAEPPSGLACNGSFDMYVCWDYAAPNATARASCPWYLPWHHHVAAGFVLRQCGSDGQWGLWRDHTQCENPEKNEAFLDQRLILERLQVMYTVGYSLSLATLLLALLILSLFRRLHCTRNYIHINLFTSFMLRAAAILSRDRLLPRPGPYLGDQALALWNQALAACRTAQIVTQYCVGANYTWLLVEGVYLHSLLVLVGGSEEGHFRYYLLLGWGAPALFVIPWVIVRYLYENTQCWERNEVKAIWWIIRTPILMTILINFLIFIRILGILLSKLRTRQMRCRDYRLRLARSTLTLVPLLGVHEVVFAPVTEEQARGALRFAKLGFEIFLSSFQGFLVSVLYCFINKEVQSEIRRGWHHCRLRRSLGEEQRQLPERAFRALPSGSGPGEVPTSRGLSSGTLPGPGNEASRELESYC
Summary of the method: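 HEK293 cells expressing human GIPR, thawed and diluted to 4×10^5 cells/mL, are stimulated with test compound. cAMP is measured by HTRF competition between cAMP-d2 and anti-cAMP cryptate. EC50 comes from a four-parameter nonlinear fit of signal ratio against concentration.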

## CC[C@H](C)[C@H](NC(=O)[C@H](Cc1ccccc1)NC(=O)[C@H](C)NC(=O)C(C)(C)NC(=O)[C@H](CCC(N)=O)NC(=O)[C@H](C)NC(=O)[C@H](CCCCNC(=O)COCCOCCNC(=O)CC[C@H](NC(=O)CCCCCCCCCCCCCCCCC(=O)O)C(=O)O)NC(=O)[C@H](CCC(=O)O)NC(=O)[C@H](CC(=O)O)NC(=O)[C@H](CC(C)C)NC(=O)[C@H](CC(C)C)NC(=O)[C@@H](NC(=O)[C@H](CO)NC(=O)[C@H](Cc1ccc(O)cc1)NC(=O)[C@H](CC(=O)O)NC(=O)[C@H](CO)NC(=O)[C@@H](NC(=O)[C@](C)(Cc1ccccc1F)NC(=O)[C@@H](NC(=O)CNC(=O)[C@H](CCC(N)=O)NC(=O)C(C)(C)NC(=O)[C@@H](N)Cc1ccc(O)cc1)[C@@H](C)O)[C@@H](C)O)[C@@H](C)CC)C(=O)N[C@@H](CCC(=O)O)C(=O)N[C@@H](Cc1ccc(O)cc1)C(=O)N[C@@H](CC(C)C)C(=O)N[C@@H](CC(C)C)C(=O)N[C@@H](C)C(=O)NCC(=O)NCC(=O)N1CCC[C@H]1C(=O)N[C@@H](CO)C(=O)N[C@@H](CO)C(=O)NCC(=O)N[C@@H](C)C(=O)N1CCC[C@H]1C(=O)N1CCC[C@H]1C(=O)N1CCC[C@H]1C(=O)N[C@@H](CO)C(N)=O [HEC-PT108]
GLP-1R
  pEC50: 9.70
GCGR
  pEC50: 9.06
GIPR
  pEC50: 10.27

## CC[C@H](C)[C@H](NC(=O)[C@H](CCCCN)NC(=O)[C@H](CC(=O)O)NC(=O)[C@H](CCCCNC(=O)COCCOCCNC(=O)CC[C@H](NC(=O)CCCCCCCCCCCCCCCCC(=O)O)C(=O)O)NC(=O)[C@H](CC(C)C)NC(=O)[C@@H](NC(=O)[C@H](CO)NC(=O)[C@H](Cc1ccc(O)cc1)NC(=O)[C@H](CC(=O)O)NC(=O)[C@H](CO)NC(=O)[C@@H](NC(=O)[C@](C)(Cc1ccccc1F)NC(=O)[C@@H](NC(=O)CNC(=O)[C@H](CCC(N)=O)NC(=O)C(C)(C)NC(=O)[C@@H](N)Cc1ccc(O)cc1)[C@@H](C)O)[C@@H](C)O)[C@@H](C)CC)C(=O)N[C@@H](C)C(=O)N[C@@H](CCC(N)=O)C(=O)N[C@@H](CCCCN)C(=O)N[C@@H](C)C(=O)N[C@@H](Cc1ccccc1)C(=O)N[C@H](C(=O)N[C@@H](CCC(=O)O)C(=O)N[C@@H](Cc1ccc(O)cc1)C(=O)N[C@@H](CC(C)C)C(=O)N[C@@H](CC(C)C)C(=O)N[C@@H](CCC(=O)O)C(=O)NCC(=O)NCC(=O)N1CCC[C@H]1C(=O)N[C@@H](CO)C(=O)N[C@@H](CO)C(=O)NCC(=O)N[C@@H](C)C(=O)N1CCC[C@H]1C(=O)N1CCC[C@H]1C(=O)N1CCC[C@H]1C(=O)N[C@@H](CO)C(N)=O)[C@@H](C)CC [HEC-PT141] (H-Y[Aib]QGT[αMePhe(2-F)]TSDYSILK([AEEA-γGlu-C18 diacid])DKIAQKAFIEYLLEGGPSSGAPPPS-NH2)
GLP-1R
  pEC50: 9.79
GCGR
  pEC50: 9.67
GIPR
  pEC50: 10.02

## CC[C@H](C)[C@H](NC(=O)[C@H](CCCCN)NC(=O)[C@H](CC(=O)O)NC(=O)[C@H](CCCCNC(=O)COCCOCCNC(=O)CC[C@H](NC(=O)CCCCCCCCCCCCCCCCC(=O)O)C(=O)O)NC(=O)[C@H](CC(C)C)NC(=O)[C@@H](NC(=O)[C@H](CO)NC(=O)[C@H](Cc1ccc(O)cc1)NC(=O)[C@H](CC(=O)O)NC(=O)[C@H](CO)NC(=O)[C@@H](NC(=O)[C@](C)(Cc1ccccc1F)NC(=O)[C@@H](NC(=O)CNC(=O)[C@H](CCC(N)=O)NC(=O)C(C)(C)NC(=O)[C@@H](N)Cc1ccc(O)cc1)[C@@H](C)O)[C@@H](C)O)[C@@H](C)CC)C(=O)N[C@@H](C)C(=O)N[C@@H](CCC(N)=O)C(=O)N[C@@H](CCC(N)=O)C(=O)N[C@@H](C)C(=O)N[C@@H](Cc1ccccc1)C(=O)N[C@H](C(=O)N[C@@H](CCC(=O)O)C(=O)N[C@@H](Cc1ccc(O)cc1)C(=O)N[C@@H](CC(C)C)C(=O)N[C@@H](CC(C)C)C(=O)N[C@@H](C)C(=O)NCC(=O)NCC(=O)N1CCC[C@H]1C(=O)N[C@@H](CO)C(=O)N[C@@H](CO)C(=O)NCC(=O)N[C@@H](C)C(=O)N1CCC[C@H]1C(=O)N1CCC[C@H]1C(=O)N1CCC[C@H]1C(=O)N[C@@H](CO)C(N)=O)[C@@H](C)CC [HEC-PT122] (H-Y[Aib]QGT[αMePhe(2-F)]TSDYSILK([AEEA-γGlu-C18 diacid])DKIAQQAFIEYLLAGGPSSGAPPPS-NH2)
GLP-1R
  pEC50: 10.05
GCGR
  pEC50: 9.79
GIPR
  pEC50: 10.56

## CC[C@H](C)[C@H](NC(=O)[C@H](CCC(=O)O)NC(=O)[C@H](CC(=O)O)NC(=O)[C@H](CC(C)C)NC(=O)[C@H](CC(C)C)NC(=O)[C@@H](NC(=O)[C@H](CO)NC(=O)[C@H](Cc1ccc(O)cc1)NC(=O)[C@H](CC(=O)O)NC(=O)[C@H](CO)NC(=O)[C@@H](NC(=O)[C@](C)(Cc1ccccc1F)NC(=O)[C@@H](NC(=O)CNC(=O)[C@H](CCC(N)=O)NC(=O)C(C)(C)NC(=O)[C@@H](N)Cc1ccc(O)cc1)[C@@H](C)O)[C@@H](C)O)[C@@H](C)CC)C(=O)N[C@@H](C)C(=O)N[C@@H](CCC(N)=O)C(=O)N[C@@H](CCCCNC(=O)COCCOCCNC(=O)COCCOCCNC(=O)CC[C@H](NC(=O)CCCCCCCCCCCCCCCCCCC(=O)O)C(=O)O)C(=O)N[C@@H](C)C(=O)N[C@@H](Cc1ccccc1)C(=O)N[C@H](C(=O)N[C@@H](CCC(=O)O)C(=O)N[C@@H](Cc1ccc(O)cc1)C(=O)N[C@@H](CC(C)C)C(=O)N[C@H](C(=O)N[C@@H](C)C(=O)NCC(=O)NCC(=O)N1CCC[C@H]1C(=O)N[C@@H](CO)C(=O)N[C@@H](CO)C(=O)NCC(=O)N[C@@H](C)C(=O)N1CCC[C@H]1C(=O)N1CCC[C@H]1C(=O)N1CCC[C@H]1C(=O)N[C@@H](CO)C(=O)O)[C@@H](C)CC)[C@@H](C)CC [HEC-PT99]
GLP-1R
  pEC50: 9.56
GCGR
  pEC50: 7.91
GIPR
  pEC50: 9.75

## CC[C@H](C)[C@H](NC(=O)[C@H](Cc1ccccc1)NC(=O)[C@H](C)NC(=O)C(C)(C)NC(=O)[C@H](CCC(N)=O)NC(=O)[C@H](CCCNC(=N)N)NC(=O)[C@@H](NC(=O)[C@H](CCCCN)NC(=O)[C@H](CC(=O)O)NC(=O)[C@H](CCCCNC(=O)COCCOCCNC(=O)CC[C@H](NC(=O)CCCCCCCCCCCCCCCCC(=O)O)C(=O)O)NC(=O)[C@H](CC(C)C)NC(=O)[C@@H](NC(=O)[C@H](CO)NC(=O)[C@H](Cc1ccc(O)cc1)NC(=O)[C@H](CC(=O)O)NC(=O)[C@H](CO)NC(=O)[C@@H](NC(=O)[C@](C)(Cc1ccccc1F)NC(=O)[C@@H](NC(=O)CNC(=O)[C@H](CCC(N)=O)NC(=O)C(C)(C)NC(=O)[C@@H](N)Cc1ccc(O)cc1)[C@@H](C)O)[C@@H](C)O)[C@@H](C)CC)[C@@H](C)CC)C(=O)N[C@@H](CCC(=O)O)C(=O)N[C@@H](Cc1ccc(O)cc1)C(=O)N[C@@H](CC(C)C)C(=O)N[C@@H](CC(C)C)C(=O)N[C@@H](C)C(=O)NCC(=O)NCC(=O)N1CCC[C@H]1C(=O)N[C@@H](CO)C(=O)N[C@@H](CO)C(=O)NCC(=O)N[C@@H](C)C(=O)N1CCC[C@H]1C(=O)N1CCC[C@H]1C(=O)N1CCC[C@H]1C(=O)N[C@@H](CO)C(N)=O [HEC-PT145] (H-Y[Aib]QGT[αMePhe(2-F)]TSDYSILK([AEEA-γGlu-C18 diacid])DKIRQ[Aib]AFIEYLLAGGPSSGAPPPS-NH2)
GLP-1R
  pEC50: 9.90
GCGR
  pEC50: 10.18
GIPR
  pEC50: 10.50

## CC[C@H](C)[C@H](NC(=O)[C@H](CCC(=O)O)NC(=O)[C@H](CC(=O)O)NC(=O)[C@H](CC(C)C)NC(=O)[C@H](CC(C)C)NC(=O)[C@@H](NC(=O)[C@H](CO)NC(=O)[C@H](Cc1ccc(O)cc1)NC(=O)[C@H](CC(=O)O)NC(=O)[C@H](CO)NC(=O)[C@@H](NC(=O)[C@](C)(Cc1ccccc1F)NC(=O)[C@@H](NC(=O)CNC(=O)[C@H](CCC(N)=O)NC(=O)C(C)(C)NC(=O)[C@@H](N)Cc1ccc(O)cc1)[C@@H](C)O)[C@@H](C)O)[C@@H](C)CC)C(=O)N[C@@H](C)C(=O)N[C@@H](CCC(N)=O)C(=O)N[C@@H](CCCCNC(=O)COCCOCCNC(=O)COCCOCCNC(=O)CC[C@H](NC(=O)CCCCCCCCCCCCCCCCCCC(=O)O)C(=O)O)C(=O)N[C@@H](C)C(=O)N[C@@H](Cc1ccccc1)C(=O)N[C@H](C(=O)N[C@@H](CCC(N)=O)C(=O)N[C@@H](Cc1c[nH]c2ccccc12)C(=O)N[C@@H](CC(C)C)C(=O)N[C@H](C(=O)N[C@@H](C)C(=O)NCC(=O)NCC(=O)N1CCC[C@H]1C(=O)N[C@@H](CO)C(=O)N[C@@H](CO)C(=O)NCC(=O)N[C@@H](C)C(=O)N1CCC[C@H]1C(=O)N1CCC[C@H]1C(=O)N1CCC[C@H]1C(=O)N[C@@H](CO)C(=O)O)[C@@H](C)CC)C(C)C [HEC-PT100] (H-Y[Aib]QGT[αMePhe(2-F)]TSDYSILLDEIAQK([AEEA-AEEA-γGlu-C20 diacid])AFVQWLIAGGPSSGAPPPS-OH)
GLP-1R
  pEC50: 10.01
GCGR
  pEC50: 8.02
GIPR
  pEC50: 10.29
